Assay results taken from patent publication EP1375483A1, “6-CHLORO-3-PYRIDYLMETHYLPROPYLAMINE DERIVATIVES, PREPARATION PROCESS THEREOF AND BACTERICIDES” (KUREHA KAGAKU KOGYO KABUSHIKI KAISHA, priority 2001, dated 2001).
Where two headings read alike, the source gives them in different places.

What was measured:
wheat powdery mildew [1] = experiment: Test of control effect on wheat powdery mildew (Test Example 1); format: in vivo; details: wettable powder 125 mg/l, 100 liters/10 a, sprinkled on wheat seedlings (Nourin 64) before inoculation, examined 9th to 14th day after inoculation; for pest or weed control at 125 µg/mL: Triticum aestivum
Protocol: Wettable powders were prepared from compounds of the present invention I-1 to I-27 and comparative compounds (a) to (d) , (m-1) and (m-3). The obtained wettable powder was diluted and suspended with water to provide the predetermined concentration (125 mg/l), and was sprinkled onto seedlings of wheat (variety: "Nourin 64") at the first to the second leaf period which were cultivated using square plastic pots (size: 6.4 cm x 6.4 cm) in a rate of 100 liters/10 a (ares). After drying the sprinkled leaves with air, a suspension of wheat powdery mildew spores taken from infected leaves was inoculated by spraying onto the sprinkled leaves. They were supervised in a green house (temperature: 20 to 24°C, relative humidity: 20 to 70 RH). On the 9th to 14th day after the inoculation, the infection degree was examined according to the following scale and the control value of each compound was calculated by the following calculation equation 1. [table] (Equation 1) Control value = (1 - infection degree of treated zone/infection degree of untreated zone) x 100 (%) [formula] The control values of each compound are shown in Table 8.

cucumber powdery mildew = experiment: Test of control effect on cucumber powdery mildew (Test Example 2); format: in vivo; details: wettable powder 100 mg/l, 100 liters/10 a, sprinkled on cucumbers (Sagamihanpakufushinari) before inoculation, examined 9th to 14th day after inoculation; for pest or weed control at 100 µg/mL: Cucumis sativus
Protocol: The wettable powders formulated by using each of the compounds I-1 to 27 according to the present invention and the comparative compounds (a) to (d), (m-1) and (m-3) were each diluted and suspended with water to a predetermined concentration (100 mg/l), the suspension was sprinkled over the first to the second leaf period cucumbers (variety: "[…]") cultivated by using a square plastic pot (size: 6. 4 cm x 6. 4 cm) in a rate of 100 liters/10 a (ares). After the sprinkled leaves were air-dried, the spores were inoculated over the leaves by sprinkling the same with a brush from an infected leaf, a disease was contracted in a glass house (temperature: 20 to 24°C, relative humidity: 20 to 70 RH). On the 9th to 14th day after the inoculation, the infection degree was examined according to the following scale and the control value of each compound was calculated by the following calculation equation 2: [table] (Equation 2) Control value = (1 - infection degree of treated zone/infection degree of untreated zone) x 100 (%) [formula] The control values of each compound are shown in Table 9.

Botrytis cinerea = experiment: Antifungal activity test against various pathogenic fungi, hypha extension on PDA plates (Test Example 3); format: cell-based; details: read-out: Growth Inhibition B.c (1.6)
Microdochium nivale = experiment: as above; format: cell-based; details: read-out: Growth Inhibition M.n (3.2)
Leptosphaeria nodorum = experiment: as above; format: cell-based; details: Parastagonospora nodorum, read-out: Growth Inhibition L.n (0.8)
Rhynchosporium secalis = experiment: as above; format: cell-based; details: read-out: Growth Inhibition R.s (100)
Pyrenophora graminea = experiment: as above; format: cell-based; details: read-out: Growth Inhibition P.g (12.5)
Pyricularia oryzae = experiment: microbe, parasite or virus in culture; format: cell-based; details: read-out: Growth Inhibition P.o (12.5)
Venturia inaequalis = experiment: Antifungal activity test against various pathogenic fungi, hypha extension on PDA plates (Test Example 3); format: cell-based; details: read-out: Growth Inhibition V.i (3.2)
[2] = test system: Pseudocercosporella herpotrichoides; experiment: as above; format: cell-based; details: Oculimacula yallundae, read-out: Growth Inhibition P.h (25)
Septoria tritici = experiment: as above; format: cell-based; details: Zymoseptoria tritici, read-out: Growth Inhibition S.t (100)
wheat powdery mildew [3] = experiment: Permeable mobility fungicidal effect test in leaf section of wheat powdery mildew (Test Example 4); format: in vivo
Protocol: In the test example 4, permeable mobility fungicidal effect test was performedon the leaf section of wheat powdery mildew with regard to the compounds I-1 to 27 according to the present invention and the comparative compounds (a) to (d), and (m-1) to (m-3) with the method described later. The compound in the form of a wettable powder obtained by Formulation 2 or the like was diluted and suspended with water to a predetermined concentration (200mg/l), and 0.5 µl of the suspension was applied to a 2 to 3 cm leaf portion from the root of the three leaves of the 4th to 4.5th leaf period wheat (variety: Abukumawase) cultured by using a square plastic pot (size: 6.4 cm x 6.4 cm). After these wheat leaves were subject to still standing in a glass house (temperature: 20 to 24C, relative humidity: 20 to 70 RH) for one day, the spores of wheat powdery mildew were inoculated over the leaves by sprinkling the same with a brush from an infected leaf, a disease was contracted in the same glass house. The length of a non-contracted area generated from the applied portion to the direction of the leaf top was measured, and a relative mobility to the compound (m-2) was calculated with the following calculation […] by using the comparative compound (m-2) as a standard compound. (Equation 4) Relative mobility = (Length of non-contracted area in each chemical section (cm)/Length of non-contracted area of compound (m-2) (cm)) [formula]

[4] = 1.6 ppm in PDA culture medium, cultured 1 to 7 days
[5] = 3.2 ppm in PDA culture medium, cultured 1 to 7 days
[6] = Leptosphaeria nodorum, 0.8 ppm in PDA culture medium, cultured 1 to 7 days
[7] = 100 ppm in PDA culture medium, cultured 1 to 7 days
[8] = 12.5 ppm in PDA culture medium, cultured 1 to 7 days
[9] = Pseudocercosporella herpotrichoides, 25 ppm in PDA culture medium, cultured 1 to 7 days
[10] = Septoria tritici, 100 ppm in PDA culture medium, cultured 1 to 7 days
[11] = length of non-contracted area relative to compound (m-2), 0.5 µl of 200 mg/l suspension applied to wheat leaf (Abukumawase), inoculated after one day

Compound	pest or weed control at 125 µg/mL (wheat powdery mildew [1]) [%]	pest or weed control at 100 µg/mL (cucumber powdery mildew) [%]	inhibition at 1.6 ppm (Botrytis cinerea; [4]) [%]	inhibition at 3.2 ppm (Microdochium nivale; [5]) [%]	inhibition at 0.8 ppm (Leptosphaeria nodorum; [6]) [%]	inhibition at 100 ppm (Rhynchosporium secalis; [7]) [%]	inhibition at 12.5 ppm (Pyrenophora graminea; [8]) [%]	inhibition at 12.5 ppm (Pyricularia oryzae) [%]	inhibition at 3.2 ppm (Venturia inaequalis; [5]) [%]	inhibition at 25 ppm [2, 9] [%]	inhibition at 100 ppm (Septoria tritici; [10]) [%]	Relative Mobility (wheat powdery mildew [3]; [11])	Control Value (wheat powdery mildew [1]) [%]	Control Value (cucumber powdery mildew) [%]	inhibition at 1.6 ppm (Botrytis cinerea) [%]	inhibition at 3.2 ppm (Microdochium nivale) [%]	inhibition at 0.8 ppm (Leptosphaeria nodorum) [%]	inhibition at 100 ppm (Rhynchosporium secalis) [%]	inhibition at 12.5 ppm (Pyrenophora graminea) [%]	inhibition at 3.2 ppm (Venturia inaequalis) [%]	other results
CC(Cc1cc(F)c(OC(F)(F)F)c(F)c1)CN(C)Cc1ccc(Cl)nc1 (stereo not drawn) [Compound I-20, 6-chloro-N-[3-(3,5-difluoro-4-trifluoromethoxyphenyl)-2-methylpropyl]-N-methyl-3-pyridylmethylamine]	100	100	> 90	70 to 90	> 90	70 to 90	70 to 90	70 to 90	70 to 90	> 90	70 to 90	9	–	–	–	–	–	–	–	–	–
CC(Cc1ccc2c(c1)OC(F)(F)O2)CN(C)Cc1ccc(Cl)nc1 (stereo not drawn) [Compound I-24]	–	–	–	–	–	–	–	70 to 90	–	–	–	–	100	100	70 to 90	70 to 90	> 90	> 90	> 90	70 to 90	inhibition at 25 ppm [2]: > 90%; inhibition at 100 ppm (Septoria tritici): 70 to 90%; Relative Mobility (wheat powdery mildew [3]; 24 h, 200 ug/mL): 6
CC(Cc1ccc(C(F)(F)F)c(F)c1F)CN(C)Cc1ccc(Cl)nc1 (stereo not drawn) [Compound I-10]	–	–	–	–	–	–	–	70 to 90	–	–	–	–	100	100	> 90	70 to 90	70 to 90	70 to 90	70 to 90	70 to 90	inhibition at 25 ppm [2]: > 90%; inhibition at 100 ppm (Septoria tritici): 70 to 90%; Relative Mobility (wheat powdery mildew [3]; 24 h, 200 ug/mL): 3
CC(Cc1ccc(OC(F)(F)F)cc1)CN(C)Cc1ccc(Cl)nc1 (stereo not drawn) [Compound I-12, 6-chloro-N-methyl-N-[3-(4-trifluoromethoxyphenyl)-2-methylpropyl]-3-pyridylmethylamine]	100	100	70 to 90	> 90	> 90	> 90	70 to 90	70 to 90	70 to 90	> 90	70 to 90	10	–	–	–	–	–	–	–	–	–
